Experimental data taken from patent publication US20230234906A1, “Use of 2-pentanone and specific receptor thereof in manufacture of products regulating cell functions” (Taihe Hospital, Hubei University of Medicine, priority 2022, published 2023).

Tests used:
[1] = target: T1, specific receptor Or35a and the specific receptor Or83b (Drosophila melanogaster, UniProt Q9V3Q2+Q9VNB5); test: Calcium imaging experiment in mouse brain slices expressing the specific receptor of 2-pentanone; format: cell-based; settings: addition of 2-pentanone; 150 μm brain slices of C57 mice injected with Or35a/Or83b overexpression virus and calcium imaging virus; confocal microscope; FIG. 4A
T1 construct: P2A peptide (self-cleaving; remnant stays on the C-terminus of Or35a) (C); remnant stays on the C-terminus of Or83b) (C); expressed in transfected cells; acute brain slices
T1 sequence (Q9V3Q2 1-409): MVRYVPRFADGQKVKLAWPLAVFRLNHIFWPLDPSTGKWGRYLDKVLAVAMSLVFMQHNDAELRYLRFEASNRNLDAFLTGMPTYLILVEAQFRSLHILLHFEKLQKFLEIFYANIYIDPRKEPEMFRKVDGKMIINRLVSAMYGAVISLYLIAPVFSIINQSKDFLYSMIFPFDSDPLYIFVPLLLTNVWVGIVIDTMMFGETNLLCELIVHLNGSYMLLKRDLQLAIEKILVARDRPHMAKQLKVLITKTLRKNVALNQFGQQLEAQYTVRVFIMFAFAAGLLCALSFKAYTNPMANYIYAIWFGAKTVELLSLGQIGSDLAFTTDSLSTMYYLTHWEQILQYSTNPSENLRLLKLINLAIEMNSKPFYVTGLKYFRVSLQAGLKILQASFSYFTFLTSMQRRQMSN
T1 sequence (Q9VNB5 1-486): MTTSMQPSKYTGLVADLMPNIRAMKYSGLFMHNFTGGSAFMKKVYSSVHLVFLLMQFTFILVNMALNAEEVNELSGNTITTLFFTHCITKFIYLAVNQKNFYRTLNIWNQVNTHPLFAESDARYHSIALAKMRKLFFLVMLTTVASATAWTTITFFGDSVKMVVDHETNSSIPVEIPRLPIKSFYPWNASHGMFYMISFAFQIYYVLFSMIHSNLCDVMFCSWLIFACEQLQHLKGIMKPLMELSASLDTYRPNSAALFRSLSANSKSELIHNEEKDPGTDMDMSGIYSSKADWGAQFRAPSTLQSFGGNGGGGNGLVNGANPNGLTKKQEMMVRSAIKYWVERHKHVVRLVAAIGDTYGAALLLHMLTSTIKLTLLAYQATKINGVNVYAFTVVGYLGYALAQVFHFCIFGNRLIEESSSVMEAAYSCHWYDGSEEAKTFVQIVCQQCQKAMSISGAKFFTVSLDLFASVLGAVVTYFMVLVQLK
Method: 1. Calcium imaging experiment: Adult C57 mice were anesthetized, fixed on a stereotaxic apparatus, and operated to expose the brain surface of the mice (1.5 mm behind the bregma, 1 mm aside, and injection depth of 2 mm). The overexpression virus (1 μl) constructed in Example 1 and the calcium imaging virus (0.5 μl) were simultaneously injected into the mouse brain using a microinjector. After 2 weeks of feeding, the brains of mice were removed. The brain tissues near the injection site were cut into 150 μm tissue slices using a vibrating microtome and placed in artificial cerebrospinal fluid with a mixture of 5% CO2 and 95% O2, and calcium imaging experiment was performed using a confocal microscope.

[2] = Verification of the arrival of 2-pentanone in cerebrospinal fluid (HPLC-MS of blood and cerebrospinal fluid after inhalation); format: in vivo, rats
Method: The specific method for detecting the arrival of 2-pentanone in cerebrospinal fluid in this test example included the following: rats were given 2-pentanone for 3 min, then blood and cerebrospinal fluid were drawn, immediately sealed and centrifuged at high speed to pellet red blood cells. The obtained cerebrospinal fluid and blood samples were subjected to HPLC-MS detection. Prior to detection, 100 μL of samples was taken and added with 400 μL of acetonitrile. The protein was separated by vortex and centrifuged at 14000 rpm for 10 min, and 100 μL of supernatant was used for HPLC-MS detection. […] It was confirmed by high performance liquid chromatography-mass spectrometry (HPLC-MS) that 2-pentanone could reach cerebrospinal fluid through blood rapidly (3 min) after inhaled by animals, and the concentration in cerebrospinal fluid decreased rapidly within 3-5 min after the inhalation was stopped.

[3] = target: T1, specific receptor Or35a and the specific receptor Or83b; test: Patch clamp experiment (whole-cell recordings) in neurons of mouse brain slices expressing the specific receptor of 2-pentanone; format: cell-based; settings: addition of 2-pentanone, 300 μm brain slices of C57 mice injected with Or35a/Or83b overexpression virus, FIG. 4B
Method: 2. Patch clamp experiment: Adult C57 mice were anesthetized, fixed on a stereotaxic apparatus, and operated to expose the brain surface of the mice (1.5 mm behind the bregma, 1 mm aside, and injection depth of 2 mm). The overexpression virus (1 μl) constructed in Example 1 was injected into the mouse brain using a microinjector. After 2 weeks of feeding, the brains of mice were removed. The brain tissues at and near the injection site were cut into 300 μm tissue slices using a vibrating microtome and placed in artificial cerebrospinal fluid with a mixture of 5% CO2 and 95% 02, and after 1 h of incubation, the patch clamp experiment was performed. Using an Axon 700B amplifier, under infrared visualization, neurons with smooth surfaces and clear contours were selected for sealing, and whole-cell recordings were performed.

Compound: CCCC(C)=O [2-pentanone]
- intracellular calcium ion concentration [1]: significantly increased
- time to reach cerebrospinal fluid through blood after inhalation ([2]; rats given 2-pentanone for 3 min by inhalation, HPLC-MS of cerebrospinal fluid): 3 min
- time within which the concentration in cerebrospinal fluid decreased rapidly after the inhalation was stopped ([2]; rats, after inhalation was stopped, HPLC-MS): 3 to 5 min
- neuronal firing rate [3]: significantly increased
